# Data as given in ChEMBL document CHEMBL5550154, “Novel biaryloxazolidinone derivatives with broad-spectrum antibacterial activity, favorable drug-like profiles and in vivo efficacy against linezolid-resistant Staphylococcusaureus” (Eur J Med Chem, 2024).
# Assays:
# [1] = AUC (0 to t) in ICR mouse at 10 mg/kg, IG measured upto 24 hrs by LC-MS analysis; format: ADME, organism-based; settings: in vivo, po
# [2] = Plasma protein binding in monkey incubated for 6 hrs by LC-MS/MS analysis; format: ADME, cell-free, Macaca mulatta; settings: rhesus monkey, read-out: PPB (converted)
# Staphylococcus aureus [3] = assay: Antibacterial activity against linezolid-resistant Staphylococcus aureus assessed as inhibition of bacterial growth incubated for 16 to 20 hrs by CLSI based broth liquid microdilution method; format: functional; settings: time 16-20 hrs
# [4] = Elimination half life in Sprague-Dawley rat at 10 mg/kg, IG measured upto 24 hrs by LC-MS analysis; format: ADME, organism-based; settings: in vivo, po, read-out: beta t1/2 (converted)
# [5] = Stability in dog plasma assessed as parent compound remaining at 37 degreeC measured upto 60 mins by HPLC analysis; format: ADME, cell-free, Canis lupus familiaris; settings: read-out: Stability
# [6] = Stability in dog plasma assessed as parent compound remaining at 25 degreeC measured upto 60 mins by HPLC analysis; format: ADME, cell-free, Canis lupus familiaris; settings: read-out: Stability
# [7] = Cytotoxicity against human HepG2 cells incubated for 48 hrs by MTT assay; format: toxicity, cell-based
# [8] = Clearance in Sprague-Dawley rat at 1 mg/kg, iv measured upto 24 hrs by LC-MS analysis; format: ADME, organism-based; settings: in vivo
# [9] = Plasma protein binding in rat incubated for 6 hrs by LC-MS/MS analysis; format: ADME, cell-free; settings: read-out: PPB (converted)
# [10] = Stability in monkey plasma assessed as parent compound remaining at 25 degreeC measured upto 60 mins by HPLC analysis; format: ADME, cell-free, Macaca mulatta; settings: rhesus monkey; for remaining at 1 h: read-out: Stability
# [11] = Aqueous solubility of compound at pH 7.4 by LC-MS/MS analysis; format: physicochemical; settings: buffer
# Staphylococcus aureus [12] = assay: Antibacterial activity against methicillin-resistant Staphylococcus aureus assessed as inhibition of bacterial growth incubated for 16 to 20 hrs by CLSI based broth liquid microdilution method; format: functional; settings: time 16-20 hrs
# [13] = Clearance in ICR mouse at 1 mg/kg, iv measured upto 24 hrs by LC-MS analysis; format: ADME, organism-based; settings: in vivo
# [14] = Tmax in ICR mouse at 10 mg/kg, IG measured upto 24 hrs by LC-MS analysis; format: ADME, organism-based; settings: in vivo, po
# [15] = Plasma protein binding in mouse incubated for 6 hrs by LC-MS/MS analysis; format: ADME, cell-free; settings: read-out: PPB (converted)
# [16] = Plasma protein binding in human incubated for 6 hrs by LC-MS/MS analysis; format: ADME, cell-free; settings: read-out: PPB (converted)
# [17] = Microsomal stability in monkey liver microsomes assessed as elimination half life pretreated with compound upto 60 mins followed by NADPH addition and measured after 60 mins by LC/MS analysis; format: ADME, Macaca mulatta, Microsome; settings: rhesus monkey, time < 120 min, read-out: beta t1/2
# [18] = Stability in monkey plasma assessed as parent compound remaining at 37 degreeC measured upto 60 mins by HPLC analysis; format: ADME, cell-free, Macaca mulatta; settings: rhesus monkey, read-out: Stability
# [19] = Microsomal stability in mouse liver microsomes assessed as parent compound remaining pretreated with compound upto 60 mins followed by NADPH addition and measured after 60 mins by LC/MS analysis; format: ADME, Microsome; settings: time < 120 min; for remaining at 2 h: liver microsomes, read-out: Stability
# Cytochrome P450 1A2 = molecular target: T1, Cytochrome P450 1A2 (Homo sapiens, UniProt P05177); assay: Inhibition of CYP1A2 in human liver microsomes with alpha-naphthoflavone as reference inhibitor preincubated with compound for 5 mins followed by substrate addition and measured after 120 mins in presence of NADPH by LC-MS/MS analysis; format: ADME, Microsome
# T1 sequence (P05177 whole entry): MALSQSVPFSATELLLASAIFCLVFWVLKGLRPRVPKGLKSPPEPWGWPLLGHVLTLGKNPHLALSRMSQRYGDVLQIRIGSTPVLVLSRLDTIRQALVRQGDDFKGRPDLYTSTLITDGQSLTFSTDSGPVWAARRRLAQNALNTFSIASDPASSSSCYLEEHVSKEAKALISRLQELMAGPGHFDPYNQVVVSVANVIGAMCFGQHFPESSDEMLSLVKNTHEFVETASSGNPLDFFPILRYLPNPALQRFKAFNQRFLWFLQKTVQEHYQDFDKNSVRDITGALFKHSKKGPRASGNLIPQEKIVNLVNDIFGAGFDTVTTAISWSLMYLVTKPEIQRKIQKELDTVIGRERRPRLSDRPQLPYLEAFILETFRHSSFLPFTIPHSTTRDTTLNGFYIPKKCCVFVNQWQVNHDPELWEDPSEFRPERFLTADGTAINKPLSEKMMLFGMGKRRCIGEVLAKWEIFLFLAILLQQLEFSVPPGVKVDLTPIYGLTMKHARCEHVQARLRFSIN
# [20] = Tmax in Sprague-Dawley rat at 10 mg/kg, IG measured upto 24 hrs by LC-MS analysis; format: ADME, organism-based; settings: in vivo, po
# [21] = Microsomal stability in dog liver microsomes assessed as parent compound remaining pretreated with compound upto 60 mins followed by NADPH addition and measured after 60 mins by LC/MS analysis; format: ADME, Canis lupus familiaris, Microsome; settings: time < 120 min, read-out: Stability
# [22] = Stability in rat plasma assessed as parent compound remaining at 37 degreeC measured upto 60 mins by HPLC analysis; format: ADME, cell-free; settings: read-out: Stability
# [23] = Microsomal stability in monkey liver microsomes assessed as parent compound remaining pretreated with compound upto 60 mins followed by NADPH addition and measured after 60 mins by LC/MS analysis; format: ADME, Macaca mulatta, Microsome; settings: rhesus monkey, time < 120 min, read-out: Stability
# [24] = Microsomal stability in rat liver microsomes assessed as intrinsic clearance pretreated with compound upto 60 mins followed by NADPH addition and measured after 60 mins by LC/MS analysis; format: ADME, Microsome; settings: time < 120 min, read-out: CLH
# [25] = Microsomal stability in dog liver microsomes assessed as elimination half life pretreated with compound upto 60 mins followed by NADPH addition and measured after 60 mins by LC/MS analysis; format: ADME, Canis lupus familiaris, Microsome; settings: time < 120 min; for half-life: liver microsomes, read-out: beta t1/2
# [26] = Cmax in Sprague-Dawley rat at 10 mg/kg, IG measured upto 24 hrs by LC-MS analysis; format: ADME, organism-based; settings: in vivo, po
# [27] = AUC (0 to t) in Sprague-Dawley rat at 10 mg/kg, IG measured upto 24 hrs by LC-MS analysis; format: ADME, organism-based; settings: in vivo, po
# Staphylococcus aureus [28] = assay: Antibacterial activity against Staphylococcus aureus ATCC29213 assessed as inhibition of bacterial growth incubated for 16 to 20 hrs by CLSI based broth liquid microdilution method; format: functional; settings: time 16-20 hrs
# Enterococcus faecalis = assay: Antibacterial activity against linezolid-resistant Enterococcus faecalis assessed as inhibition of bacterial growth incubated for 16 to 20 hrs by CLSI based broth liquid microdilution method; format: functional; settings: time 16-20 hrs
# [29] = Microsomal stability in dog liver microsomes assessed as intrinsic clearance pretreated with compound upto 60 mins followed by NADPH addition and measured after 60 mins by LC/MS analysis; format: ADME, Canis lupus familiaris, Microsome; settings: time < 120 min; for microsomal CLint: liver microsomes, read-out: CLH
# [30] = Stability in rat plasma assessed as parent compound remaining at 25 degreeC measured upto 60 mins by HPLC analysis; format: ADME, cell-free; settings: for remaining at 1 h: read-out: Stability
# [31] = Microsomal stability in mouse liver microsomes assessed as intrinsic clearance pretreated with compound upto 60 mins followed by NADPH addition and measured after 60 mins by LC/MS analysis; format: ADME, Microsome; settings: time < 120 min, read-out: CLH
# Staphylococcus aureus [32] = assay: Antibacterial activity against methicillin-sensitive Staphylococcus aureus assessed as inhibition of bacterial growth incubated for 16 to 20 hrs by CLSI based broth liquid microdilution method; format: functional; settings: time 16-20 hrs
# [33] = Stability in human plasma assessed as parent compound remaining at 25 degreeC measured upto 60 mins by HPLC analysis; format: ADME, cell-free; settings: for remaining at 1 h: read-out: Stability; for Stability: 1 h
Structure (SMILES),fraction unbound at 6 h [2],half-life [4] [h],remaining at 1 h [5] [%],remaining at 1 h [6] [%],IC50 at 48 h [7] [µM],clearance [8] [mL/min/kg],fraction unbound at 6 h [9],fraction unbound at 6 h [15],fraction unbound at 6 h [16],half-life [17] [h],remaining at 1 h [18] [%],IC50 (Cytochrome P450 1A2) [µM],Tmax [20] [h],remaining at 2 h [21] [%],remaining at 1 h [22] [%],remaining at 2 h [23] [%],microsomal CLint [24] [µL/min/mg],Cmax [26] [ng/mL],AUC(0-t) at 24 h [27] [ng·h/mL],microsomal CLint [31] [µL/min/mg],also measured
CC(C)N/N=C/c1ccc(-c2ccc(N3C[C@H](CO)OC3=O)cc2F)cn1,0.115,1.94,108,112,> 30,10.3,0.018,0.048,0.074,1.68,106,> 30,1.17,76.7,102,66,12.6,2480,10100,18.4,"AUC(0-t) at 24 h [1]: 613 ng·h/mL; MIC (Staphylococcus aureus [3]): 0.03 µg/mL; remaining at 1 h [10]: 108%; solubility [11]: 30.2 µM; MIC (Staphylococcus aureus [12]): 0.03 µg/mL; clearance [13]: 34.9 mL/min/kg; Tmax [14]: 0.25 h; Stability ([19]; microsomes, 2 h): 57.9%; half-life [25]: 3.37 h; MIC (Staphylococcus aureus [28]): 0.06 µg/mL; MIC (Enterococcus faecalis): 1 µg/mL; microsomal CLint [29]: 8.78 µL/min/mg; remaining at 1 h [30]: 111%; MIC (Staphylococcus aureus [32]): 0.03 µg/mL; remaining at 1 h [33]: 112%"
O=C1O[C@@H](CO)CN1c1ccc(-c2ccc(/C=N/N3CCCCC3)nc2)c(F)c1,0.028,2.72,100,97.4,> 30,11.6,0.006,0.013,0.013,1.34,105,> 30,1.67,67.4,104,59,14.5,1380,7170,9.37,AUC(0-t) at 24 h [1]: 4740 ng·h/mL; MIC (Staphylococcus aureus [3]): 0.03 µg/mL; remaining at 1 h [10]: 120%; solubility [11]: 9.94 µM; MIC (Staphylococcus aureus [12]): 0.03 µg/mL; clearance [13]: 13.9 mL/min/kg; Tmax [14]: 2 h; remaining at 2 h [19]: 75.2%; half-life [25]: 1.78 h; MIC (Staphylococcus aureus [28]): 0.03 µg/mL; MIC (Enterococcus faecalis): 0.5 µg/mL; microsomal CLint [29]: 13.1 µL/min/mg; Stability ([30]; 1 h): 124%; MIC (Staphylococcus aureus [32]): 0.03 µg/mL; Stability [33]: 149%
O=C1O[C@@H](CO)CN1c1ccc(-c2ccc(/C=N/N3CCOCC3)nc2)c(F)c1,0.215,1.49,115,107,> 30,14,0.041,0.117,0.144,7.78,103,> 30,1.33,96.8,103,93.3,2.3,2320,8310,2.02,AUC(0-t) at 24 h [1]: 29300 ng·h/mL; MIC (Staphylococcus aureus [3]): 0.125 µg/mL; remaining at 1 h [10]: 113%; solubility [11]: 10.9 µM; MIC (Staphylococcus aureus [12]): 0.125 µg/mL; clearance [13]: 5.9 mL/min/kg; Tmax [14]: 2 h; remaining at 2 h [19]: 96%; half-life [25]: 19.2 h; MIC (Staphylococcus aureus [28]): 0.06 µg/mL; MIC (Enterococcus faecalis): 0.5 µg/mL; microsomal CLint [29]: 1.51 µL/min/mg; remaining at 1 h [30]: 116%; MIC (Staphylococcus aureus [32]): 0.06 µg/mL; remaining at 1 h [33]: 102%
O=C1O[C@@H](CO)CN1c1ccc(-c2ccc(/C=N/N3CCS(=O)(=O)CC3)nc2)c(F)c1,0.284,4.28,107,113,> 30,14.7,0.096,0.245,0.223,9.68,103,> 30,0.42,97,106,98.8,2.07,597,2120,1.07,"MIC (Staphylococcus aureus [3]): 0.25 µg/mL; Stability ([10]; 1 h): 144%; solubility [11]: 20 µM; MIC (Staphylococcus aureus [12]): 0.25 µg/mL; remaining at 2 h [19]: 96%; beta t1/2 ([25]; microsomes, 2 h): 98.85 h; MIC (Staphylococcus aureus [28]): 0.25 µg/mL; MIC (Enterococcus faecalis): 0.5 µg/mL; CLH ([29]; microsomes, 2 h): 0.804 µL/min/mg; remaining at 1 h [30]: 113%; MIC (Staphylococcus aureus [32]): 0.125 µg/mL; Stability [33]: 126%"
CC(=O)NC[C@H]1CN(c2ccc(N3CCOCC3)c(F)c2)C(=O)O1 [LINEZOLID],0.745,1.08,110,99.1,> 30,24.7,0.639,0.721,0.716,51.8,105,> 30,0.5,97.8,107,99.4,2.22,4830,13000,2.18,AUC(0-t) at 24 h [1]: 24000 ng·h/mL; remaining at 1 h [10]: 99.4%; clearance [13]: 20.6 mL/min/kg; Tmax [14]: 0.25 h; remaining at 2 h [19]: 92.3%; half-life [25]: 34.6 h; microsomal CLint [29]: 0.667 µL/min/mg; remaining at 1 h [30]: 99.2%; remaining at 1 h [33]: 99.4%
